# From PMC5554137, “Evaluation of novel factor Xa inhibitors from Oxya chinensis sinuosa with anti-platelet aggregation activity” (Scientific Reports, 2017)
# Assays:
# Trypsin = test: Chromogenic substrate assay, Ki determination, Trypsin; type: biochemical, human; details: substrate S-2222
# Protocol: (§1) The inhibitor (I) constants (Ki) were determined for the inhibition of a series of human enzymes (FXa, thrombin, trypsin, plasmin, protein Ca, streptokinase, tPA, and urokinase) by each compound. Chromogenic substrate assays were performed using a Labsystems IEMS (Cergy Pontoise, France) microtiter plate reader. In each assay, the compound was tested at a minimum of seven concentrations in duplicate to obtain an inhibition curve. Assays were performed according to the following general procedure. In a 96-well microtiter plate, 25 μL of compound, inhibitor solution or buffer was added to 50 μL of substrate. A volume of 25 μL of enzyme solution was added just before the plate was placed in the microtiter plate reader for 1 h at 37 °C. The hydrolysis of the substrate yields p-nitroaniline, which was continuously monitored spectrophotometrically at 405 nm. Data were collected and the initial rate of substrate hydrolysis [Vo (mOD/minute)] was calculated. Following Michaelis-Menten kinetics, the affinity of the enzyme for the substrate, in the absence of the inhibitor (Km) and in the presence of an inhibitor (Kp), was determined to be the negative inverse x-intercept of Lineweaver–Burk plots. The dissociation constant for inhibition (Ki) was calculated using the following equation: Ki = (Km·[I])/(Kp − Km) as described by Williams and Morrison[40].
# Urokinase = Urokinase (Homo sapiens, UniProt P00749); test: Chromogenic substrate assay, Ki determination, Urokinase; type: biochemical; details: substrate S-2444
# Protocol: as §1
# [1] = tested on: mouse platelet-rich plasma (PRP); test: In vitro platelet aggregation induced by ADP; type: cell-based; details: ADP 10 µM
# Protocol: (§2) To study the effects of compounds 1–5 on platelet aggregation, we used mouse platelet-rich plasma (PRP) induced with various agonists as an in vitro model.
# (§3) Figure 5 Effects of compounds 1–4 on agonist-induced platelet aggregation in vitro. Platelet-rich plasma (PRP) was preincubated for 5 min with different concentrations of compounds 1–4, or vehicle. Platelet aggregation was initiated with ADP (A, 10 µM), U46619 (B, 6 µM), or thrombin (C, 3 U/mL). D = 0.2% DMSO used as the vehicle control. Data are presented as means ± SD of three independent experiments. ^* p < 0.05 vs. vehicle alone, analyzed by one-way ANOVA, followed by Tukey multiple comparison testing.
# (§4) The in vitro platelet aggregation assay was performed according to a previously reported method, [39]. Platelet rich plasma (PRP) was incubated with the indicated concentration of each compound in DMSO for 1, 3, 5, or 10 min. Samples were subsequently stimulated by ADP (10 μM), U46619 (6 μM), or thrombin (3 U/mL). Platelet aggregation was recorded using an aggregometer (Chronolog, Havertown, PA, USA).
# [2] = tested on: mouse platelet-rich plasma (PRP); test: In vitro platelet aggregation induced by U46619; type: cell-based; details: U46619 6 µM
# Protocol: as §2, §3, §4
# tPA = tPA (Homo sapiens, UniProt P00750); test: Chromogenic substrate assay, Ki determination, tPA; type: biochemical; details: substrate S-2228
# Protocol: as §1
# FXa = target: T1, FXa (Homo sapiens, UniProt P00742); test: Chromogenic substrate assay, Ki determination, Factor Xa; type: biochemical; details: substrate S-2765 (Table 3); mean ± SD (n = 5)
# T1 construct: purchased Haematologic Technologies (Essex Junction, VT, USA)
# Protocol: as §1
# Plasmin = Plasmin (Homo sapiens, UniProt P00747); test: Chromogenic substrate assay, Ki determination, Plasmin; type: biochemical; details: substrate S-2251
# Protocol: as §1
# [3] = target: Streptokinase (Homo sapiens); test: Chromogenic substrate assay, Ki determination, Streptokinase; type: biochemical; details: substrate S-2251
# Protocol: as §1
# C57BL/6 mice [4] = test: In vivo clotting time (aPTT after four daily injections); set-up: species or system mouse; details: daily intravenous injection for four consecutive days
# Protocol: (§5) To evaluate the effects of compounds 1–5 on coagulation parameters ex vivo, we measured the influence of the isolated compounds on activated partial thromboplastin time (aPTT) and prothrombin time (PT). […] The average circulating blood volume for mice is 72 mL/kg[21]. Because the average weight of mice used in this study was 27 g and the average blood volume was 2 mL, the dose of compounds 1–5 (38.6, 77.2, or 193.1 µg/kg) equaled a peripheral blood concentration of approximately 1, 2, and 5 µM, respectively.
# Figure 4 Effects of compounds 1–4 on clotting and bleeding time. (A) One hour after administration (intravenous injection) of compound 1 (white box), 2 (light gray box), 3 (dark gray box), or 4 (black box), blood was collected from the mice and platelet-poor plasma (PPP) was obtained by centrifugation at 2,000 × g for 10 min at room temperature to test ex vivo activated partial thromboplastin time (aPTT). (B) Each group received a daily intravenous injection of the indicated compound for four consecutive days. Fifteen minutes after the last administration, blood samples were collected and in vivo aPTT was measured. […] Accumulated bleeding times (including periods of re-bleeding) were recorded. […] Data are presented as means ± SD of three independent experiments. *p < 0.05 vs. vehicle alone, analyzed by one-way ANOVA, followed by Tukey multiple comparison testing.
# Protein Ca = Protein Ca (Homo sapiens, UniProt P04070); test: Chromogenic substrate assay, Ki determination, Protein Ca; type: biochemical; details: substrate S-2366
# Protocol: as §1
# [5] = tested on: mouse platelet-rich plasma (PRP); test: In vitro platelet aggregation induced by thrombin; type: cell-based; details: thrombin 3 U/mL
# Protocol: as §2, §3, §4
# C57BL/6 mice [6] = test: Ex vivo coagulation assay, aPTT; type: in vivo, mouse; details: intravenous, 38 to 193 µg/kg
# Protocol: as §5
# Figure 4 Effects of compounds 1–4 on clotting and bleeding time. […] Fifteen minutes after the last administration, blood samples were collected and in vivo aPTT was measured. […] Accumulated bleeding times (including periods of re-bleeding) were recorded. […] Data are presented as means ± SD of three independent experiments. *p < 0.05 vs. vehicle alone, analyzed by one-way ANOVA, followed by Tukey multiple comparison testing.
# Fifteen min after the administration of each compound or saline, blood was sampled, and plasma was obtained by centrifuging at 2,000 × g for 10 min at room temperature in order to measure prothrombin time (PT) and activated partial thromboplastin time (aPTT). The aPTT and PT were determined using a Thrombotimer (Behnk Elektronik, Norderstedt, Germany), according to the manufacturer’s instructions and as described previously. […] The clotting times were recorded. […]
# α-Thrombin = target: T2, α-Thrombin (Homo sapiens, UniProt P00734); test: Chromogenic substrate assay, Ki determination, α-Thrombin; type: biochemical; details: substrate S-2238
# T2 construct: FXa converts prothrombin to thrombin; purchased Haematologic Technologies (Essex Junction, VT, USA)
# Protocol: as §1
# bleeding time models = tested on: bleeding time models; set-up: method as in PMID 20139357, PMID 15748242; details: antithrombotic doses below the ED50 required for antithrombotic efficacy; cited from earlier work
# rat = tested on: rat; set-up: method as in PMID 20139357, PMID 15748242; details: higher doses, rat tail-bleeding time model; cited from earlier work
# thrombin = thrombin (Homo sapiens, UniProt P00734); set-up: method as in PMID 20139357; details: cited from earlier work
# platelet aggregation = tested on: platelet aggregation; set-up: method as in PMID 20139357; details: cited from earlier work
# C57BL/6 mice [7] = test: FeCl3-induced arterial thrombosis mouse model; type: in vivo; details: FeCl3 injury, tirofiban 0.2 or 0.4 mg/kg (dose for this value not stated)
# Chain of Protein Ca (P04070 212-461 limits assumed): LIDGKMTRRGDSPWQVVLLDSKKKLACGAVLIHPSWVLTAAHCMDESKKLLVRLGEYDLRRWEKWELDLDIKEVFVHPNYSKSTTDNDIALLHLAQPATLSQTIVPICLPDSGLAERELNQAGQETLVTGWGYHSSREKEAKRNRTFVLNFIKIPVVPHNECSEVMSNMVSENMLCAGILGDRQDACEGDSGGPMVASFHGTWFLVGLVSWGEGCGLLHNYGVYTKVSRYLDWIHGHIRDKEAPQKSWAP
# Chain of Protein Ca (P04070 43-197 limits assumed): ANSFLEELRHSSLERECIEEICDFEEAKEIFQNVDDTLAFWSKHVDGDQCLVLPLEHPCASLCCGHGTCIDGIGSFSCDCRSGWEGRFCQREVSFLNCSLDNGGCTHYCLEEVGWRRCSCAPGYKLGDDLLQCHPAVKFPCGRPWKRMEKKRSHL
# Chain of tPA (P00750 36-562): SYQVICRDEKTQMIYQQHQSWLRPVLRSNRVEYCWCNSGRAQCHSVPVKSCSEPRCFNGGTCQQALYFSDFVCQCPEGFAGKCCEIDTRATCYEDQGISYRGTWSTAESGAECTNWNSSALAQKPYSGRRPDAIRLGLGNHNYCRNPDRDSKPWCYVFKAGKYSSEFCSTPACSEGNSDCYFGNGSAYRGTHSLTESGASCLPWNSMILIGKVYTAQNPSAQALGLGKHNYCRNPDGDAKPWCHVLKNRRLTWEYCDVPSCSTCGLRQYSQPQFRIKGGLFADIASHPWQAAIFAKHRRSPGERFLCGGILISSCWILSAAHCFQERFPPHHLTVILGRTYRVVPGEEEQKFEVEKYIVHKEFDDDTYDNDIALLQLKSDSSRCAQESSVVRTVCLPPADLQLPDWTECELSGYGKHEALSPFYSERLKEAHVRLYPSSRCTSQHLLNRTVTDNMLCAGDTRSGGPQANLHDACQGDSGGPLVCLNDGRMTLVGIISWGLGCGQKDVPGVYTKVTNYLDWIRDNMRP
# Chain of Streptokinase (Homo sapiens) (P00747 581-810 limits assumed): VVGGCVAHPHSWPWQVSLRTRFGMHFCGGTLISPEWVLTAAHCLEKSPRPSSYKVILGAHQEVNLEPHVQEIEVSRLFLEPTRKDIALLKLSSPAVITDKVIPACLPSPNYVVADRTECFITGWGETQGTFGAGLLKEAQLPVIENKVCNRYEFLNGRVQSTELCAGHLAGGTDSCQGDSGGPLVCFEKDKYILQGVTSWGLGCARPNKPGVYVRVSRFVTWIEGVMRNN
# Chain of Plasmin (P00747 581-810 limits assumed): as above
# Chain of Plasmin (P00747 97-580 limits assumed): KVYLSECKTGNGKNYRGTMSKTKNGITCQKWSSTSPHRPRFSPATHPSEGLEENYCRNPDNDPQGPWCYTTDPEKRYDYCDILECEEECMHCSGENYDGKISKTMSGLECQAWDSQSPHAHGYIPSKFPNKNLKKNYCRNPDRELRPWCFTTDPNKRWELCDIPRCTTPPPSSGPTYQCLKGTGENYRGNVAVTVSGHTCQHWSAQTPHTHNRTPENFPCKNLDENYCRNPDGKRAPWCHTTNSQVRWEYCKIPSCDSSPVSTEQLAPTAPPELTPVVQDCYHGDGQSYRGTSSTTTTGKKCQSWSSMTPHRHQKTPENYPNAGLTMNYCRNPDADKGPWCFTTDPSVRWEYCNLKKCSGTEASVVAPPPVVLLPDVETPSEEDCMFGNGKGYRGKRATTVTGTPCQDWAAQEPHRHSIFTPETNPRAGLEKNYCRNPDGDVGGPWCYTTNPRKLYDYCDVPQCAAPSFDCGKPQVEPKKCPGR
# T1 sequence (P00742 235-488 limits assumed): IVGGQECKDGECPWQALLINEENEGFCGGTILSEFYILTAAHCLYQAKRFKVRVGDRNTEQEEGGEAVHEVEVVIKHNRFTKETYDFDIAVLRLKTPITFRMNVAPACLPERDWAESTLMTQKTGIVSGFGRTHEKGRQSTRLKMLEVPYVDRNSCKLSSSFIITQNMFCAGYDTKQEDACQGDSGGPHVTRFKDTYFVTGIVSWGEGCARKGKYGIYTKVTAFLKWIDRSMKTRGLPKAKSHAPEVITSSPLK
# T1 sequence (P00742 41-179 limits assumed): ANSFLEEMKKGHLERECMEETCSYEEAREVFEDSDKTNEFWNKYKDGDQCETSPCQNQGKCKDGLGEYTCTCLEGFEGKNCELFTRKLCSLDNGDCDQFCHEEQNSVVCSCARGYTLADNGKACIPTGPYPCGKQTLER
smiles,measurement,setting,value
"CC(=O)N/C=C/c1ccc2c(c1)O[C@H](c1ccc(O)c(O)c1)[C@@H](NC(C)=O)O2 [Compound 5, (2 R,3 S)-2-(3′,4′-dihydroxyphenyl)-3-acetylamino-7-(N-acetyl-2″-aminethylene)-1,4-benzodioxane]",Ki,Trypsin,> 250 µM
same,Ki,Urokinase,> 250 µM
same,platelet aggregation induced by ADP,[1],did not affect
same,platelet aggregation induced by U46619,[2],did not affect
same,Ki,tPA,> 250 µM
same,Ki,FXa,> 250 µM
same,Ki,Plasmin,> 250 µM
same,Ki,[3],> 250 µM
same,blood clotting time in vivo (anticoagulant effect),C57BL/6 mice [4],not
same,Ki,Protein Ca,> 250 µM
same,thrombin-induced platelet aggregation,[5],did not affect
same,"activated partial thromboplastin time (aPTT), ex vivo",C57BL/6 mice [6],did not affect
same,Ki,α-Thrombin,> 250 µM
O=C(NC[C@H]1CN(c2ccc(N3CCOCC3=O)cc2)C(=O)O1)c1ccc(Cl)s1 [rivaroxaban],bleeding times,bleeding time models,not significantly affected
same,bleeding times,rat,dose-dependently prolonged
same,generation of thrombin,thrombin,prolonged
same,"platelet aggregation induced by ADP, thrombin, or U46619",platelet aggregation,did not affect
CCCCS(=O)(=O)N[C@@H](Cc1ccc(OCCCCC2CCNCC2)cc1)C(=O)O [tirofiban],time to growth of large thrombi,C57BL/6 mice [7],61.1 ± 5.1 min
